# Test results published in patent US20250320299A1, “BISPECIFIC DENDRITIC CELL ENGAGER AND USES THEREOF” (OBI PHARMA, INC., priority 2021, published 2025).
# B1: α-CRT antibody 5B3-1 (OBI Pharma, Inc.) (antibody, V domains shown)
# VH: EVQLVETGGGLVQPKGSLKLSCAASGFSFNNNAMNWVRQAPGKGLEWVARIRSKTNNYEIYYAESVKDRFTISRDDSQSMLYLQMNNLKTDDTAMYYCVRDYNHVGFVYWGQGTQVTVST
# VL: DIVMTQTTPSVPVTPGESVSISCRSSKSLLYSNGNTYLYWFLQRPGQSPQLLIYRMSNLASGVPDRFSGSGSGTAFTLRISRVEAEDVGVYYCMQHLEYPFTFGAGTKLELK
# notes: also called Anti-CRT (5B3-1)
# Tests used:
# [1] = system: Mouse 4T1 breast cancer cells; assay: Exposure of endogenous danger signals (surface CRT, Hsp70) on tumor cells, flow cytometry; format: cell-based; details: 100 μM Oxaliplatin for two days
# [2] = system: Mouse 4T1 breast cancer cells; assay: ATP release to supernatant, CellTiter-Glo Luminescent Assay; format: cell-based; details: 100 μM Oxaliplatin for two days
# Method: Furthermore, supernatants were collected and centrifuged then the ATP in the supernatant was determined by CellTiter-Glo® Luminescent Assay (Promega, Cat #G7570). Briefly, an equal volume of the collected supernatants and reagent were mixed and incubated in the dark for 10 minutes at room temperature. The luminescence was determined by a luminometer (MolecularDevice, SpectraMax L).
# [3] = system: Mouse Pan T cells with co-cultured MutuDC 1940 cells and 4T1 cells; assay: T cell proliferation primed by dendritic cell loaded with tumor cell; format: cell-based; details: DCs cocultured with 4T1 cells treated with 100 μM Oxaliplatin, T cells 72 hours
# Method: Then, cells were collected and counted. […] Cells were washed and counted. 5-fold Far Red labeled mouse Pan T cells were added to the co-cultured MutuDC 1940 cells and 4T1 cells for another 72 hours. […] Another CD8^+T-cell proliferation was calculated by gating on CD3^+/CD4^− cells and setting a marker that contained at least 98% of cells in unstimulated samples.
# 4T1 breast cancer cells = details: Oxaliplatin 5 mg/kg intravenous, BsAb 20 μg intratumor, days 7, 13 and 20; sacrificed Day 27
# Method: 1×10^5 4T1 breast cancer cells was injected through subcutaneous injection (s.c. injection) on the right flank of mice in 100 μL sterile PBS. Five mice of each were randomized into three treatment groups on day 7 following tumor inoculation when the tumor size reached 50 mm^3. […] Tumor length, and width were recorded weekly. Tumor volumes were calculated using the formula: volume (mm^3)=([width]^2×length)/2. Results were shown as arithmetic meantstandard error of the mean (SEM). Statistical comparisons were performed by two-tailed Student's t-test. Significance set of probability “p” was set as the level at *p<0.05, **p<0.01, ***, p<0.001. […] Mice were sacrificed at Day 27.
# [4] = system: MutuDC 1940 cells and 4T1 cells; assay: Dendritic cell-mediated phagocytosis of tumor cell; details: 4T1 cells treated with 100 μM Oxaliplatin for two days; untreated 31.03%
# Method: Mouse 4T1 breast cancer cells were labeled with CellTrace™ Far Red staining solution (ThermoFisher, Cat #C34564) at 37° C. for 30 minutes and then washed with PBS. Cells were seeded overnight in a 6-well plate. After cultivating overnight, cells were treated or not with 100 μM Oxaliplatin for two days. Then, cells were collected and counted. An equal number of MutuDC 1940 cells and 4T1 cells were mixed and incubated at 37° C. for the indicated time. After treatment, cells were collected and stained with anti-mouse CD11c-BV421 (Biolegend, Cat #117330) antibody at 4° C. for 30 minutes. Cells were washed and centrifuged, then analyzed by FACS CANTOII. 4T1 cell incorporation in MutuDC 1940 cells evaluated as the percentage of CD11c positive for far-red fluorescence incorporation.
# [5] = system: oxaliplatin treated 4T1 cells; assay: Cell binding assay (FACS) on oxaliplatin treated tumor cells; design: species or system mouse; details: 30 nM antibody
# [6] = target: T1, human CRT-ECD protein (OBI Pharma Inc., in-house produced) (human, UniProt P27797 18-417, limits assumed); assay: ELISA, antigen coated at 200 ng per well, anti-mouse IgG-HRP detection
# T1 construct: extracellular domain; Coated at 200 ng per well for ELISA; also called calreticulin
# T1 sequence (looked up): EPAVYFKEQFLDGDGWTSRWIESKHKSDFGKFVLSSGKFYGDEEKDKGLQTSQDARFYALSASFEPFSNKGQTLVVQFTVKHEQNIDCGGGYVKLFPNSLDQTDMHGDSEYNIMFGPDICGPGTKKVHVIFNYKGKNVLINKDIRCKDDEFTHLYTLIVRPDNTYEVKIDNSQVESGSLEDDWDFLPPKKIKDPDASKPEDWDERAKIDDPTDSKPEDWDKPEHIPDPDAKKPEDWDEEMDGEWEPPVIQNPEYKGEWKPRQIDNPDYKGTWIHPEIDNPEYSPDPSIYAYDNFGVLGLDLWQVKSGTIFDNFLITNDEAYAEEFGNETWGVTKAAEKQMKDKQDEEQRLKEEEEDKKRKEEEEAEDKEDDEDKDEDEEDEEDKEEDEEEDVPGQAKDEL
Molecule,surface Hsp70 on live 4T1 cells ([1]; untreated 3.2%) [%],surface CRT on live 4T1 cells ([1]; untreated 6.5%) [%],ATP released to the medium [2],proliferation of CD8+ T-cells [3],4T1 tumor growth versus control (4T1 breast cancer cells),DC-mediated phagocytosis of 4T1 cells by MutuDC 1940 cells (percentage of CD11c positive for far-red) [4] [%],binding activity on oxaliplatin treated 4T1 cells [5] [%],EC50 [6] [nM]
O=C1[O][Pt]2([NH][C@@H]3CCCC[C@H]3[NH]2)[O]C1=O [Oxaliplatin],11,59,increased,increased,no difference,43.3,–,–
B1,–,–,–,–,–,–,41.2,0.407
